One assay has as its target T1, Type-A CCK receptor (Cavia porcellus, UniProt Q63931).
T1 construct: Cortical and pancreatic membranes were prepared as described; from tissue; host or cells: guinea pig pancreas membranes
T1 sequence (Q63931 1-430): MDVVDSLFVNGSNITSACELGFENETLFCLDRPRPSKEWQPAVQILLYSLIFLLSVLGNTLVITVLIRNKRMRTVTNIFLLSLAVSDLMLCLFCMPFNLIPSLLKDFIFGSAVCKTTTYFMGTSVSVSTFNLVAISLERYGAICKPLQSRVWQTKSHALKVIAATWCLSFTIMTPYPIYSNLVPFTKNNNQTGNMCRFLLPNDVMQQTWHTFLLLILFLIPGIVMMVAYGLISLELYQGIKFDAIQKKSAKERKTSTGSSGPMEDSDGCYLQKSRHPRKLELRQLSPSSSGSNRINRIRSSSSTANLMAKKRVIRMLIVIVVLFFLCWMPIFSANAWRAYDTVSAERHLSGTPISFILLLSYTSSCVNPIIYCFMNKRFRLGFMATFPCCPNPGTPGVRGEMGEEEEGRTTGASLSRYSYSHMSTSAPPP
Put plainly: Radioligand binding of [125I]BH-CCK-8 in guinea pig pancreatic membrane preparations. Put shortly: (§1)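 Membranes came from male guinea pig pancreas (type A) or cerebral cortex (type B) and were resuspended in pH 7.4 HEPES-EGTA-salt buffer containing bestatin and phosphoramidon. Test compounds competed with [125I]BH-CCK-8 in 0.1% BSA: cortex 150 min at 30 °C, pancreas 150 min at 37 °C. Reactions ended by filtration; IC50 from Hill analysis.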

The target in a further assay is T2, Type-B CCK receptor (Cavia porcellus, UniProt H0VZC5).
T2 construct: Cortical and pancreatic membranes were prepared as described; from tissue; host or cells: guinea pig cerebral cortex membranes
T2 sequence (H0VZC5 1-426): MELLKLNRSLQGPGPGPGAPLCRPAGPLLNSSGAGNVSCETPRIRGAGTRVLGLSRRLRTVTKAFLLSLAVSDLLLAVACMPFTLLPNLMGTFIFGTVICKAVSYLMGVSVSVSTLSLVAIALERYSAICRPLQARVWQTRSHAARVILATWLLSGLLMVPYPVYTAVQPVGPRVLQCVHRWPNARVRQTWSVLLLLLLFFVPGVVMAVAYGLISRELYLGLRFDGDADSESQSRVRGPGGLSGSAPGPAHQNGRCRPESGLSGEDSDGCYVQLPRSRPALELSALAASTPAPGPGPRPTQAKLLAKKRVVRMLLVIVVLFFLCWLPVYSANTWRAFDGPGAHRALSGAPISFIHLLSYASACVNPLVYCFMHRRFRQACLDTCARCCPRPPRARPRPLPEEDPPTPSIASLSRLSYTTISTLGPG
The assay can be described thus: Radioligand binding of [125I]BH-CCK-8 in guinea pig cerebral cortical membrane preparations. Put shortly:
as §1

Setting [1] is: IC50 (nM) 125I-BH-CCK-8 Type-A receptor, guinea pig pancreatic membranes, 37° C., 150 min.
Setting [2] is: IC50 (nM) 125I-BH-CCK-8 Type-B receptor, guinea pig cortical membranes, 30° C., 150 minutes.
Setting [3] is: guinea pig pancreatic membranes, 37° C., 150 min, read-out: IC50 (nM) 125I-BH-CCK-8 Type-A receptor.
[4] abbreviates: guinea pig cortical membranes, 30° C., 150 minutes, read-out: IC50 (nM) 125I-BH-CCK-8 Type-B receptor.

Structures can show the parent of a compound that is named as a salt. Where two headings read alike, the source gives them in different places. *1 amine or outer side, *2 acyl side, *3 side chain or, on linkers, in order; H or OH if unused. Where a SMILES comes first, the peptide text is derived from it. Side-chain parts run from the residue outwards. [ ]: non-standard residue; d: D form. The star is where a group is joined. ξ: configuration not given here. Acryloyl(3-(pyridin-3-yl)) = O=C(C=Cc1cccnc1)*; NMeW = CN[C@@H](Cc1c[nH]c2ccccc12)C(=O)O; ξαMeW = CC(N)(Cc1c[nH]c2ccccc12)C(=O)O; X12 = O=C(C=Cc1ccc(C(F)(F)F)cc1)*; NMeF = CN[C@@H](Cc1ccccc1)C(=O)O; X10 = COc1ccc(C=CC(=O)*)c(OC)c1; Cha = N[C@@H](CC1CCCCC1)C(=O)O; NMeD = CN[C@@H](CC(=O)O)C(=O)O; NH(2-Me-phenyl) = Cc1ccccc1N*; X1 = O=C(C=Cc1ccc(O)cc1)*; X15 = Clc1cccc(N*)c1Cl; Boc = CC(C)(C)OC(=O)*; CO = O=C([*:1])[*:2]; Tfa = O=C(C(F)(F)F)*; X6 = O=C(Oc1ccccc1)*; Bz = O=C(c1ccccc1)*; NHPh = c1ccc(N*)cc1; Moc = COC(=O)*

Broadly, the IC50 is the point on the concentration scale where inhibition reaches its midpoint. Take `Cc1ccccc1NC(=O)NCCCC[C@H](NC(=O)C(C)(Cc1c[nH]c2ccccc12)NC(=O)OC(C)(C)C)C(=O)N[C@@H](CC(=O)O)C(=O)N[C@@H](Cc1ccccc1)C(N)=O` (stereo partly drawn) [Example 96, t-BOC-D,L-(α-methyl)Trp-Lys(ε-N-(2-methylphenyl)aminocarbonyl)-Asp-PheNH2] (Boc-[ξαMeW]K([CO-NH(2-Me-phenyl)])DF-NH2): the IC50 is 16 nM on Type-A CCK receptor (setting [1]) and 9300 nM at Type-B CCK receptor (setting [2]).
As for `Cc1ccccc1NC(=O)NCCCC[C@H](NC(=O)C(C#N)Cc1c[nH]c2ccccc12)C(=O)N[C@@H](CC(=O)O)C(=O)N[C@@H](Cc1ccccc1)C(N)=O` (some centres unmarked) [Example 64, (2-Cyano-3-(3-indolyl)propionyl)-Lys(ε-N-(2-methylphenyl)aminocarbonyl)-Asp-PheNH2], the IC50 at Type-A CCK receptor (setting [3]) turned out to be 10 nM; at Type-B CCK receptor (setting [4]) it was 640 nM.
In the same order, the values of `Cc1ccccc1NC(=O)NCCCC[C@H](NC(=O)C(C#N)Cc1c[nH]c2ccccc12)C(=O)N[C@@H](CC(=O)O)C(=O)N(C)[C@@H](Cc1ccccc1)C(N)=O` (some centres unmarked) [Example 105, (2-Cyano-3-(3-indolyl)propionyl)-Lys(ε-N-(2-methylphenyl)aminocarbonyl)-Asp-(NMe)PheNH2] are 20 nM and 1300 nM.
For `CN[C@@H](Cc1c[nH]c2ccccc12)C(=O)N[C@@H](CCCCNC(=O)Nc1ccccc1C)C(=O)N(C)[C@@H](CC(=O)O)C(=O)N[C@@H](Cc1ccccc1)C(N)=O` [Example 69, HCl-(NMe)Trp-Lys(ε-N-(2-methylphenyl)aminocarbonyl)-(NMe)Asp-PheNH2] (H-[NMeW]K([CO-NH(2-Me-phenyl)])[NMeD]F-NH2), the IC50 at Type-A CCK receptor (setting [1]) was 14 nM; at Type-B CCK receptor, more than 10000 nM.
With `Cc1ccccc1NC(=O)NCCCC[C@H](NC(=O)[C@H](Cc1c[nH]c2ccccc12)NC(=O)Nc1ccccc1)C(=O)N[C@@H](CC(=O)O)C(=O)N(C)[C@@H](Cc1ccccc1)C(N)=O` [Example 84, Phenylaminocarbonyl-Trp-Lys(ε-N-(2-methylphenyl)aminocarbonyl)-Asp-(NMe)PheNH2] ({NHPh-CO}-WK([CO-NH(2-Me-phenyl)])D[NMeF]-NH2), the IC50 worked out at 3 nM at Type-A CCK receptor (setting [1]) and 3000 nM at Type-B CCK receptor (setting [2]).
In the same order, the values of `Cc1ccccc1NC(=O)NCCCC[C@H](NC(=O)[C@H](Cc1c[nH]c2ccccc12)NC(=O)c1ccccc1)C(=O)N(C)[C@@H](CC(=O)O)C(=O)N[C@@H](Cc1ccccc1)C(N)=O` [Example 90, Benzoyl-Trp-Lys(ε-N-(2-methylphenyl)aminocarbonyl)-(NMe)Asp-PheNH2] (Bz-WK([CO-NH(2-Me-phenyl)])[NMeD]F-NH2) are 2.7 nM and 5100 nM.
`CN(C(=O)[C@H](CCCCNC(=O)C=Cc1ccc(O)cc1)NC(=O)[C@H](Cc1c[nH]c2ccccc12)NC(=O)OC(C)(C)C)[C@@H](CC(=O)O)C(=O)N[C@@H](Cc1ccccc1)C(N)=O` [Example 71, t-BOC-Trp-Lys(ε-N-(4-hydroxycinnamoyl))-(NMe)Asp-PheNH2] (Boc-WK(X1)[NMeD]F-NH2): the IC50 was 4.9 nM on Type-A CCK receptor (setting [3]) and 5800 nM at Type-B CCK receptor (setting [4]).
On to `CC(C)(C)OC(=O)N[C@@H](Cc1c[nH]c2ccccc12)C(=O)N[C@@H](CCCCNC(=O)C=Cc1ccc(C(F)(F)F)cc1)C(=O)N[C@@H](CC(=O)O)C(=O)N[C@@H](Cc1ccccc1)C(N)=O` [Example 8, t-BOC-Trp-Lys(ε-N-(4-trifluoromethylcinnamoyl))-Asp-PheNH2] (Boc-WK(X12)DF-NH2), for which the IC50 was found to be 200 nM on Type-A CCK receptor (setting [3]) and 5300 nM at Type-B CCK receptor (setting [4]).
With `CN(C(=O)[C@H](CCCCNC(=O)C=Cc1ccc(O)cc1)NC(=O)[C@H](Cc1c[nH]c2ccccc12)NC(=O)OC(C)(C)C)[C@@H](CC(=O)O)C(=O)N(C)[C@@H](Cc1ccccc1)C(N)=O` [Example 72, t-BOC-Trp-Lys(ε-N-(4-hydroxycinnamoyl))-(NMe)Asp-(NMe)PheNH2] (Boc-WK(X1)[NMeD][NMeF]-NH2), the IC50 on Type-A CCK receptor (setting [3]) is 12 nM; on Type-B CCK receptor (setting [4]), more than 9000 nM.
On to `COC(=O)N[C@@H](Cc1c[nH]c2ccccc12)C(=O)N[C@@H](CCCCNC(=O)Nc1ccccc1C)C(=O)N(C)[C@@H](CC(=O)O)C(=O)N[C@@H](Cc1ccccc1)C(N)=O` [Example 81, Methoxycarbonyl-Trp-Lys(ε-N-(2-methylphenyl)aminocarbonyl)-(NMe)Asp-PheNH2] (Moc-WK([CO-NH(2-Me-phenyl)])[NMeD]F-NH2), for which the half-maximal inhibitory concentration (IC50) was 2.1 nM on Type-A CCK receptor (setting [1]) and more than 10000 nM at Type-B CCK receptor (setting [2]).
With `Cc1ccccc1NC(=O)NCCCC[C@H](NC(=O)C(F)Cc1c[nH]c2ccccc12)C(=O)N[C@@H](CC(=O)O)C(=O)N[C@@H](Cc1ccccc1)C(N)=O` (some centres unmarked) [Example 63, 2-Fluoro-3-(indol-3-yl)propionyl-Lys(ε-N-(2-methylphenyl)aminocarbonyl)-Asp-PheNH2], the IC50 was determined as 20 nM on Type-A CCK receptor (setting [3]) and 4500 nM at Type-B CCK receptor (setting [4]).
In the same order, the values of `CC(C)(C)OC(=O)N[C@@H](Cc1c[nH]c2ccccc12)C(=O)N[C@@H](CCCCNC(=O)Nc1cccc(Cl)c1Cl)C(=O)N[C@@H](CC(=O)O)C(=O)N[C@@H](Cc1ccccc1)C(N)=O` [Example 125, t-BOC-Trp-Lys(ε-N-(2,3-dichlorophenyl)aminocarbonyl)-Asp-PheNH2] (Boc-WK([CO-X15])DF-NH2) are 2.8 nM and more than 10000 nM.
In the same order, the values of `Cc1ccccc1NC(=O)NCCCC[C@H](NC(=O)CCc1c[nH]c2ccccc12)C(=O)N(C)[C@@H](CC(=O)O)C(=O)N(C)[C@@H](Cc1ccccc1)C(N)=O` [Example 102] are 14 nM and 2500 nM.
On to `Cc1ccccc1NC(=O)NCCCC[C@H](NC(=O)[C@H](Cc1c[nH]c2ccccc12)NC(=O)C(F)(F)F)C(=O)N(C)[C@@H](CC(=O)O)C(=O)N[C@@H](Cc1ccccc1)C(N)=O` [Example 88A, trifluoroacetyl-Trp-Lys(ε-N-(2-methylphenyl)aminocarbonyl)-(NMe)Asp-PheNH2] (Tfa-WK([CO-NH(2-Me-phenyl)])[NMeD]F-NH2), for which the IC50 at Type-A CCK receptor (setting [1]) is 4.4 nM; on Type-B CCK receptor (setting [2]), more than 10000 nM.
Consider `COC(=O)N[C@@H](Cc1c[nH]c2ccccc12)C(=O)N[C@@H](CCCCNC(=O)Nc1ccccc1C)C(=O)N(C)[C@@H](CC(=O)O)C(=O)N(C)[C@@H](Cc1ccccc1)C(N)=O` [Example 124] (Moc-WK([CO-NH(2-Me-phenyl)])[NMeD][NMeF]-NH2), for which the IC50 at Type-A CCK receptor (setting [1]) came out at 4.5 nM; at Type-B CCK receptor (setting [2]), 2600 nM.
Regarding `COc1ccc(C=CC(=O)NCCCC[C@H](NC(=O)[C@H](Cc2c[nH]c3ccccc23)NC(=O)OC(C)(C)C)C(=O)N[C@@H](CC(=O)O)C(=O)N[C@@H](Cc2ccccc2)C(N)=O)c(OC)c1` [Example 23, t-BOC-Trp-Lys(ε-N-(2,4-dimethoxycinnamoyl))-Asp-PheNH2] (Boc-WK(X10)DF-NH2), the concentration for half-maximal inhibition (IC50) on Type-A CCK receptor (setting [3]) was determined as 130 nM; at Type-B CCK receptor (setting [4]) it was 3000 nM.
The matching figures for `CN(C(=O)[C@H](CCCCNC(=O)C=Cc1cccnc1)NC(=O)[C@H](Cc1c[nH]c2ccccc12)NC(=O)OC(C)(C)C)[C@@H](CC(=O)O)C(=O)N[C@@H](Cc1ccccc1)C(N)=O` [Example 67, t-BOC-Trp-Lys-(ε-N-3-(3-pyridyl)acrylyl)-(NMe)Asp-PheNH2] (Boc-WK(Acryloyl(3-(pyridin-3-yl)))[NMeD]F-NH2): 40 nM and 8300 nM.
As to `Cc1ccccc1NC(=O)NCCCC[C@H](NC(=O)[C@H](Cc1c[nH]c2ccccc12)NC(=O)OC(C)(C)C)C(=O)N[C@@H](CC(=O)O)C(=O)N[C@@H](CC1CCCCC1)C(N)=O` [Example 116, t-BOC-Trp-Lys(ε-N-(2-methylphenyl)aminocarbonyl)-Asp-ChaNH2] (Boc-WK([CO-NH(2-Me-phenyl)])D[Cha]-NH2), the half-maximal inhibitory concentration (IC50) was 10 nM at Type-A CCK receptor (setting [1]) and 4000 nM at Type-B CCK receptor (setting [2]).
With `Cc1ccccc1NC(=O)NCCCC[C@H](NC(=O)[C@H](Cc1c[nH]c2ccccc12)NC(=O)Oc1ccccc1)C(=O)N[C@@H](CC(=O)O)C(=O)N(C)[C@@H](Cc1ccccc1)C(N)=O` [Example 79, Phenoxycarbonyl-Trp-Lys(ε-N-(2-methylphenyl)aminocarbonyl)-Asp-(NMe)PheNH2] (X6-WK([CO-NH(2-Me-phenyl)])D[NMeF]-NH2), the IC50 on Type-A CCK receptor was 10 nM; on Type-B CCK receptor, 7200 nM.
